In the supplement of paper PMC11208160:

Assay: recombinant UMI read abundance after kanamycin selection (control-corrected) (log10(CPM+1)); higher = more efficient recombination; extreme values may be limits of the assay; sequences stand for … in AGTGCAGAGAAAATCGGCCAGTTTTCTCTGCCTGCAGTCCGCATGCCGTGGGACCCCTTGGGTTCTAACCTGTTGCCTAGATTTATGCAGCGGACTGCCTTTCTCCCAAAGTGATAAACCGG…AGGTTGGTTTCACT; site = the 11-nt donor
In short: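 Two replicates each of selected and unselected plating were used in this pooled Escherichia coli screen of donor and donor-binding-loop pairs for the IS621 bridge recombinase. Selection was with IPTG (0.07 mM) and kanamycin. Counts of recombinant UMIs, amplified across the donor–target junction, were converted to CPM, averaged, scaled by control-derived factors and reported as log10(CPM+1).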
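Further: IS621 bridge recombinase in Escherichia coli cells against a fixed T5 target plasmid.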

Sequence | recombinant UMI read abundance (log10)
ACCGTGACATGGACCGGTTTTCCCGGTAATCCGTATTTGCA (site ACCGTGACTTG) | 2.4
ACCTAGACATGGACCGGTTTTCCCGGTAATCCGTATTTGGG (site AACTAGACTCC) | 0.0442
ACCTAGACATGGACCGGTTTTCCCGGTAATCCGTATTTGGG (site ACATAGACTCC) | 0.00696
ACCTAGACATGGACCGGTTTTCCCGGTAATCCGTATTTGGG (site ACCAAGACTCC) | 0.00495
ACCTAGACATGGACCGGTTTTCCCGGTAATCCGTATTTGGG (site ACCCAGACTCC) | 0.00611
ACCTAGACATGGACCGGTTTTCCCGGTAATCCGTATTTGGG (site ACCGAGACTCC) | 0
ACCTAGACATGGACCGGTTTTCCCGGTAATCCGTATTTGGG (site ACCTAAACTCC) | 0
ACCTAGACATGGACCGGTTTTCCCGGTAATCCGTATTTGGG (site ACCTACACTCC) | 0.0139
ACCTAGACATGGACCGGTTTTCCCGGTAATCCGTATTTGGG (site ACCTAGACTAC) | 0.0239
ACCTAGACATGGACCGGTTTTCCCGGTAATCCGTATTTGGG (site ACCTAGACTCA) | 0.0191
ACCTAGACATGGACCGGTTTTCCCGGTAATCCGTATTTGGG (site ACCTAGACTCC) | 0.0334
ACCTAGACATGGACCGGTTTTCCCGGTAATCCGTATTTGGG (site ACCTAGACTCG) | 0.634
ACCTAGACATGGACCGGTTTTCCCGGTAATCCGTATTTGGG (site ACCTAGACTCT) | 0.00788
ACCTAGACATGGACCGGTTTTCCCGGTAATCCGTATTTGGG (site ACCTAGACTGC) | 0.00778
ACCTAGACATGGACCGGTTTTCCCGGTAATCCGTATTTGGG (site ACCTAGACTTC) | 0.00986
ACCTAGACATGGACCGGTTTTCCCGGTAATCCGTATTTGGG (site ACCTAGCCTCC) | 0.0119
ACCTAGACATGGACCGGTTTTCCCGGTAATCCGTATTTGGG (site ACCTAGGCTCC) | 0.0977
ACCTAGACATGGACCGGTTTTCCCGGTAATCCGTATTTGGG (site ACCTAGTCTCC) | 0.0195
ACCTAGACATGGACCGGTTTTCCCGGTAATCCGTATTTGGG (site ACCTATACTCC) | 0.333
ACCTAGACATGGACCGGTTTTCCCGGTAATCCGTATTTGGG (site ACCTCGACTCC) | 0.00246
ACCTAGACATGGACCGGTTTTCCCGGTAATCCGTATTTGGG (site ACCTGGACTCC) | 0.0143
ACCTAGACATGGACCGGTTTTCCCGGTAATCCGTATTTGGG (site ACCTTGACTCC) | 0.0253
ACCTAGACATGGACCGGTTTTCCCGGTAATCCGTATTTGGG (site ACGTAGACTCC) | 0.0154
ACCTAGACATGGACCGGTTTTCCCGGTAATCCGTATTTGGG (site ACTTAGACTCC) | 0.0151
ACCTAGACATGGACCGGTTTTCCCGGTAATCCGTATTTGGG (site AGCTAGACTCC) | 0.0336

Sequence | recombinant UMI read abundance (log10)
ACCTAGACATGGACCGGTTTTCCCGGTAATCCGTATTTGGG (site ATCTAGACTCC) | 0.015
ACCTAGACATGGACCGGTTTTCCCGGTAATCCGTATTTGGG (site CCCTAGACTCC) | 0.00828
ACCTAGACATGGACCGGTTTTCCCGGTAATCCGTATTTGGG (site GCCTAGACTCC) | 0.00312
ACCTAGACATGGACCGGTTTTCCCGGTAATCCGTATTTGGG (site TCCTAGACTCC) | 0.0161
ACCTAGCCATGGACCGGTTTTCCCGGTAATCCGTATTTGCC (site ACCTAGCCTGG) | 0
ACCTAGCCATGGACCGGTTTTCCCGGTAATCCGTATTTGCC (site CCCTAGCCTGG) | 0
ACCTAGCCATGGACCGGTTTTCCCGGTAATCCGTATTTGCC (site GCCTAGCCTGG) | 0
ACCTAGCCATGGACCGGTTTTCCCGGTAATCCGTATTTGCC (site TCCTAGCCTGG) | 0
ACCTAGGCATGGACCGGTTTTCCCGGTAATCCGTATTTGGG (site ACCTAGACTCC) | 0.00318
ACCTAGGCATGGACCGGTTTTCCCGGTAATCCGTATTTGGG (site ACCTAGCCTCC) | 0.0364
ACCTAGGCATGGACCGGTTTTCCCGGTAATCCGTATTTGGG (site ACCTAGGCTCC) | 0.0121
ACCTAGGCATGGACCGGTTTTCCCGGTAATCCGTATTTGGG (site ACCTAGTCTCC) | 0.0121
ACCTCGACATGGACCGGTTTTCCCGGTAATCCGTATTTGGG (site ACCTAGACTCC) | 0.0526
ACCTCGACATGGACCGGTTTTCCCGGTAATCCGTATTTGGG (site ACCTCGACTCC) | 0.00574
ACCTCGACATGGACCGGTTTTCCCGGTAATCCGTATTTGGG (site ACCTGGACTCC) | 0.0333
ACCTCGACATGGACCGGTTTTCCCGGTAATCCGTATTTGGG (site ACCTTGACTCC) | 0
ACCTCTACATGGACCGGTTTTCCCGGTAATCCGTATTTGTG (site ACATCTACTCA) | 0.014
ACCTCTACATGGACCGGTTTTCCCGGTAATCCGTATTTGTG (site ACCTCTACTCA) | 0.0203
ACCTCTACATGGACCGGTTTTCCCGGTAATCCGTATTTGTG (site ACGTCTACTCA) | 0.0131
ACCTCTACATGGACCGGTTTTCCCGGTAATCCGTATTTGTG (site ACTTCTACTCA) | 0.0231
ACCTGGACATGGACCGGTTTTCCCGGTAATCCGTATTTGGG (site ACCTAGACTCC) | 0.00306
ACCTGGACATGGACCGGTTTTCCCGGTAATCCGTATTTGGG (site ACCTCGACTCC) | 0.00694
ACCTGGACATGGACCGGTTTTCCCGGTAATCCGTATTTGGG (site ACCTGGACTCC) | 0.0305
ACCTGGACATGGACCGGTTTTCCCGGTAATCCGTATTTGGG (site ACCTTGACTCC) | 0.0114
ACCTTCGCATGGACCGGTTTTCCCGGTAATCCGTATTTGGC (site ACCTTCGCTGC) | 1.56

Sequence | recombinant UMI read abundance (log10)
ACCTTTCCATGGACCGGTTTTCCCGGTAATCCGTATTTGCT (site ACCTTTCCTAG) | 0
ACGAAAACATGGACCGGTTTTCCCGGTAATCCGTATTTGTT (site ACGAAAACTAA) | 1.37
ACGAAACCATGGACCGGTTTTCCCGGTAATCCGTATTTGGA (site ACGAAACCTTC) | 0
ACGAAGGCATGGACCGGTTTTCCCGGTAATCCGTATTTGAC (site ACGAAGGCTGT) | 2.46
ACGAAGTCATGGACCGGTTTTCCCGGTAATCCGTATTTGCA (site ACGAAGTCTTG) | 3.09
ACGAAGTCATGGACCGGTTTTCCCGGTAATCCGTATTTGCA (site AGGAAGACTTG) | 0
ACGACGGCATGGACCGGTTTTCCCGGTAATCCGTATTTGAA (site ACGACGGCTTT) | 1.59
ACGAGGTCATGGACCGGTTTTCCCGGTAATCCGTATTTGAC (site ACGAGGTCTGT) | 2.91
ACGCAACCATGGACCGGTTTTCCCGGTAATCCGTATTTGCT (site ACGCAACCTAG) | 0
ACGCCGTCATGGACCGGTTTTCCCGGTAATCCGTATTTGGT (site ACGCCGTCTAC) | 1.61
ACGCGAACATGGACCGGTTTTCCCGGTAATCCGTATTTGTC (site ACACGAACTGA) | 2.62
ACGCGAACATGGACCGGTTTTCCCGGTAATCCGTATTTGTC (site ACCCGAACTGA) | 0
ACGCGAACATGGACCGGTTTTCCCGGTAATCCGTATTTGTC (site ACGCGAACTGA) | 2.38
ACGCGAACATGGACCGGTTTTCCCGGTAATCCGTATTTGTC (site ACTCGAACTGA) | 0
ACGCGTACATGGACCGGTTTTCCCGGTAATCCGTATTTGGA (site ACGCGTACTTC) | 1.12
ACGGAGACATGGACCGGTTTTCCCGGTAATCCGTATTTGCA (site ACGGAGACTTG) | 2.64
ACGGAGACATGGACCGGTTTTCCCGGTAATCCGTATTTGCA (site AGGAAGACTTG) | 0
ACGGCCTCATGGACCGGTTTTCCCGGTAATCCGTATTTGGT (site ACGGCCTCTAC) | 2.1
ACGGCGTCATGGACCGGTTTTCCCGGTAATCCGTATTTGTC (site ACGGCGTCTGA) | 3.22
ACGGGGCCATGGACCGGTTTTCCCGGTAATCCGTATTTGCA (site ACGGGGCCTTG) | 0
ACGGTGCCATGGACCGGTTTTCCCGGTAATCCGTATTTGAA (site ACGGTGCCTTT) | 0.00366
ACGTACACATGGACCGGTTTTCCCGGTAATCCGTATTTGCA (site ACGTACACTTG) | 2.71
ACGTCATCATGGACCGGTTTTCCCGGTAATCCGTATTTGTT (site ACGTCATCTAA) | 1.69
ACGTCGACATGGACCGGTTTTCCCGGTAATCCGTATTTGTT (site ACGTCGACTAA) | 0.654
ACGTGAGCATGGACCGGTTTTCCCGGTAATCCGTATTTGCC (site ACGTGAGCTGG) | 2.7
